From the NIST ThermoML archive (doi:10.1016/j.jct.2014.06.023)
Several values for one entry are separate records, joined by “and”; a condition that tells them apart may be missing. Equal entries are not always repeated. ± gives the expanded uncertainty stated by the source.

Details: Buoyancy - hydrostatic balance with magnetic suspension - one sinker

CC [ethane]
Details	mass density
225.41 K, 310.68 kPa, Gas	5.2843 ± 0.012 kg/m3
225.41 K, 1642.2 kPa, Liquid	489.85 ± 0.11 kg/m3
225.42 K, 212.66 kPa, Gas	3.5454 ± 0.011 kg/m3
225.42 K, 1086.8 kPa, Liquid	488.834 ± 0.11 kg/m3
225.42 K, 2133.2 kPa, Liquid	490.717 ± 0.11 kg/m3
225.43 K, 709.57 kPa, Liquid	488.151 ± 0.11 kg/m3
225.44 K, 403.34 kPa, Gas	6.9981 ± 0.012 kg/m3
225.47 K, 499.44 kPa, Gas	8.8558 ± 0.013 kg/m3
230.34 K, 306.85 kPa, Gas	5.0853 ± 0.011 kg/m3
230.34 K, 1666.7 kPa, Liquid	482.366 ± 0.11 kg/m3
230.34 K, 2111.2 kPa, Liquid	483.236 ± 0.11 kg/m3
230.35 K, 197.35 kPa, Gas	3.2054 ± 0.011 kg/m3
230.35 K, 391.01 kPa, Gas	6.5852 ± 0.012 kg/m3
230.35 K, 493.22 kPa, Gas	8.4852 ± 0.012 kg/m3
230.35 K, 2447.9 kPa, Liquid	483.853 ± 0.11 kg/m3
230.36 K, 615.49 kPa, Gas	10.8842 ± 0.012 kg/m3
230.36 K, 1671.6 kPa, Liquid	482.356 ± 0.11 kg/m3
230.37 K, 1281 kPa, Liquid	481.577 ± 0.11 kg/m3
230.38 K, 886.51 kPa, Liquid	480.769 ± 0.11 kg/m3
235 K, 391.54 kPa, Gas	6.4356 ± 0.011 kg/m3
235.01 K, 305.16 kPa, Gas	4.9382 ± 0.011 kg/m3
235.01 K, 499.46 kPa, Gas	8.3818 ± 0.012 kg/m3
235.01 K, 592.34 kPa, Gas	10.1286 ± 0.013 kg/m3
235.02 K, 197.5 kPa, Gas	3.137 ± 0.011 kg/m3
235.03 K, 694.56 kPa, Gas	12.1431 ± 0.013 kg/m3
239.99 K, 717.05 kPa, Gas	12.2167 ± 0.013 kg/m3
240.01 K, 954.18 kPa, Gas	17.1448 ± 0.014 kg/m3
240.04 K, 105.82 kPa, Gas	1.619 ± 0.01 kg/m3
240.04 K, 323.6 kPa, Gas	5.1239 ± 0.011 kg/m3
240.04 K, 502.79 kPa, Gas	8.2138 ± 0.012 kg/m3
240.04 K, 1755.7 kPa, Liquid	466.891 ± 0.11 kg/m3
240.05 K, 2196.3 kPa, Liquid	467.899 ± 0.11 kg/m3
240.06 K, 1092.2 kPa, Liquid	465.243 ± 0.11 kg/m3
240.06 K, 1457.2 kPa, Liquid	466.142 ± 0.11 kg/m3
240.08 K, 2591.9 kPa, Liquid	468.767 ± 0.11 kg/m3
240.09 K, 2936.2 kPa, Liquid	469.524 ± 0.11 kg/m3
244.91 K, 880.77 kPa, Gas	15.0548 ± 0.013 kg/m3
244.91 K, 1111.6 kPa, Gas	20.0182 ± 0.014 kg/m3
244.92 K, 628.26 kPa, Gas	10.2258 ± 0.012 kg/m3
244.92 K, 877.28 kPa, Gas	14.9812 ± 0.013 kg/m3
244.92 K, 1123.2 kPa, Liquid	456.739 ± 0.11 kg/m3
244.92 K, 1225 kPa, Liquid	457.081 ± 0.11 kg/m3
244.92 K, 1442.7 kPa, Liquid	457.624 ± 0.11 kg/m3
244.93 K, 138.73 kPa, Gas	2.0893 ± 0.01 kg/m3
244.93 K, 350.79 kPa, Gas	5.4481 ± 0.011 kg/m3
244.93 K, 350.8 kPa, Gas	5.4496 ± 0.011 kg/m3
244.93 K, 904.97 kPa, Gas	15.5558 ± 0.013 kg/m3
244.93 K, 1659 kPa, Liquid	458.187 ± 0.11 kg/m3
244.93 K, 1659.6 kPa, Liquid	458.185 ± 0.11 kg/m3
244.95 K, 1111.4 kPa, Gas	20.0202 ± 0.014 kg/m3
249.79 K, 863.82 kPa, Gas	14.2661 ± 0.013 kg/m3
249.8 K, 863.8 kPa, Gas	14.2677 ± 0.013 kg/m3
249.8 K, 1281.6 kPa, Gas	23.1579 ± 0.017 kg/m3
249.81 K, 360.58 kPa, Gas	5.4802 ± 0.011 kg/m3
249.81 K, 633.6 kPa, Gas	10.0488 ± 0.012 kg/m3
249.81 K, 1067.5 kPa, Gas	18.3574 ± 0.015 kg/m3 and 18.3577 ± 0.015 kg/m3
249.81 K, 1281.3 kPa, Gas	23.1411 ± 0.017 kg/m3
249.82 K, 147.6 kPa, Gas	2.1773 ± 0.0099 kg/m3
249.84 K, 2352.9 kPa, Liquid	451.272 ± 0.1 kg/m3
